# Measurements as given in patent US11572590B2, “Methods for evaluating tumor cell spheroids using 3D microfluidic cell culture device” (Dana-Farber Cancer Institute, Inc., priority 2017, dated 2023).
# Where two headings read alike, the source gives them in different places.
# Molecular target: T1, off-target kinases (Homo sapiens, UniProt Q8WXR4)
# T1 sequence (Q8WXR4 1-1341): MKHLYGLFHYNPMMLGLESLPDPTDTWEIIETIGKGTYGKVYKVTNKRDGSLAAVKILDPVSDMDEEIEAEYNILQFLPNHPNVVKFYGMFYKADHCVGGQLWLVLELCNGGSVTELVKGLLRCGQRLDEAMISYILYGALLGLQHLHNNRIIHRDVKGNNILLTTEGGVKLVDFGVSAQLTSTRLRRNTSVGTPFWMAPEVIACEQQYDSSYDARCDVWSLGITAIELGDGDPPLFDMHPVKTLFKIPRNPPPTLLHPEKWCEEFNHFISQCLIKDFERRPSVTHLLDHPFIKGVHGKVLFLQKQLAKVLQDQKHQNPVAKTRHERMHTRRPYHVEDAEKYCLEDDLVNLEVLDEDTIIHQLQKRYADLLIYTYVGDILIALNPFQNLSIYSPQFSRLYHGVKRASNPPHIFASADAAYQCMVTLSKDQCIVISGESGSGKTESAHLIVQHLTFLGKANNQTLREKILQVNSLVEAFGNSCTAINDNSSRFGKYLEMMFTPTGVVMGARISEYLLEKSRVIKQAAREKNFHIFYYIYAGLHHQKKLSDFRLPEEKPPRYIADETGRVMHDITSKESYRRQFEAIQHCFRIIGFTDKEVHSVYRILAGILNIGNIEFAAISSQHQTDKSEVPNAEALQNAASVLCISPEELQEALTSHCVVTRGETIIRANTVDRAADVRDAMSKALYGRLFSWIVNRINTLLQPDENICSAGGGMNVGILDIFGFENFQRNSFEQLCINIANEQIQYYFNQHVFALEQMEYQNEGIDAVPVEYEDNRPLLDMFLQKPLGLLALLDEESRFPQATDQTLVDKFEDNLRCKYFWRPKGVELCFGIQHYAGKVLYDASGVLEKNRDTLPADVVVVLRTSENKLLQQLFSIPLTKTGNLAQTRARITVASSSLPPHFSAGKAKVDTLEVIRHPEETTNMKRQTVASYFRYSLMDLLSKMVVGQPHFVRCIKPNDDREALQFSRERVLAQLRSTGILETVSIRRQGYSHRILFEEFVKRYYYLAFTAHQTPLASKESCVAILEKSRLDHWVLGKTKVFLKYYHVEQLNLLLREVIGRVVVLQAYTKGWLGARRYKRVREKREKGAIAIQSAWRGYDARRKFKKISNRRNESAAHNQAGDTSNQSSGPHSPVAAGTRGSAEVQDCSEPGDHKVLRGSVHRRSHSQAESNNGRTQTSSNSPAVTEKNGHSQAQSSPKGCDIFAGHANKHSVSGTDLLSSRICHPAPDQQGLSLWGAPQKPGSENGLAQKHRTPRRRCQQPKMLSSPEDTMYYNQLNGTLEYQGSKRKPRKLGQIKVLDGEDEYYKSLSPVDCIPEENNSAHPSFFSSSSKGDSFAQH
# Assay: SelectScreen Kinase Profiling, single point inhibition and IC50 for off-target kinases
# Assay type: biochemical
# Details: MYO3B (MYO3 beta), LanthaScreen Binding
compound,measurement,setting,value
"N#Cc1cc(-c2ncnc(Nc3ccc(N4CCN(C5COC5)CC4)cc3)n2)ccc1OC1CCOCC1 [Compound 1, 5-(4-((4-(4-(oxetan-3-yl)piperazin-1-yl)phenyl)amino)-1,3,5-triazin-2-yl)-2-((tetrahydro-2H-pyran-4-yl)oxy)benzonitrile]",inhibition,read-out: % Inhibition 1,17%
same,inhibition,read-out: % Inhibition 2,20%
same,inhibition,read-out: % Inhibition Avg,18%
